≈ marks a conversion by molar mass, not a printed value.
Tests used:
[1] = Water solubility; format: physicochemical; settings: for solubility / Solubility in g per l water at 25° C, white gel / thick syrup: water
Description: It is primarily for the purpose of providing water solubility to the steryl monosaccharides that the compounds of this invention, the dicarboxylic acid half ester derivatives and their salts, were prepared.
A solution of succinic anhydride (8.6 g, 0.086 mole) and anhydrous sitosteryl β-D-glucoside (24.7 g, 0.043 mole) in anhydrous pyridine (90 ml) was refluxed for 30 minutes and then left to stand for 20 hrs before it was poured into vigorously stirred conc. hydrochloric acid (104 ml) at ice temperature. The mixture was allowed to stand for 2 hrs before the precipitated hemiester was gravity filtered. The collected solid, washed with iced water until the washings were neutral, was dried in a vacuum oven and a small sample of this was dried to constant weight for a C and H analysis.
The standard preparation of the sterolin dicarboxylic acid hemiester salts illustrated by the preparation of the disodium salt of sitosteryl β-D-glucoside dihemisuccinate. The wet sitosteryl β-D-glucoside dihemisuccinate washed clear of hydrochloric acid as described in Example 1 was transferred quantitatively into a sodium bicarbonate solution (200 ml water; 7.2 g or 0.086 mole NaHCO3). This mixture cooled to 0° C. was slowly poured with vigorous stirring into ice cold acetone (2000 ml) and the white precipitate of the salt was allowed to settle over 18 hrs in an ice chest before it was filtered under suction. The moist salt was thoroughly stirred into ice cold acetone (200 ml), the slurry suction filtered and the filter cake washed with cold ether before the product was dried in a vacuum oven at 40° C. for 48 hrs followed by 2×1 minute heating in a microoven.

[2] = Oral toxicity studies in rats (acute and prolonged daily dosing); format: in vivo
Description: (§1) Preferred daily doses of the compounds of this invention depend on the purpose for which they are used, administered or applied and also whether they are given by oral or parenteral routes or applied topically. […] They may be toxic when administered in large amounts and therefore the oral route is preferred. […] If taken for prophylactic purposes by healthy individuals a daily dose of 0.01-0.1 mg is adequate, although this may be raised to 0.2-1 mg for elderly people. Depending on the severity of a degenerative disease daily doses of 0.3-44 mg may be used for initial treatment until on improvement of the particular condition, a maintenance dose of 0.03-0.6 mg per day is advisable. Lower daily doses are required when these compounds are administered parenterally (e.g. via an intravenous drip). It should be noted that with respect to animals a preferred dose is difficult to predict since it is known that marked differences exist between species and even various breeds or strains of animals in their ability to utilise or react to steroidal glycosides (44-46).

[3] = Acute toxicity after a single oral or parenteral dose; format: in vivo, male Sprague-Dawley rats; settings: intraperitoneal, after 7 days
Description: (§2) The test substance was suspended in a 1% m/v Tylose® solution made up with distilled water. The selected test doses of the compounds were administered by force feeding at the rate of 1.0 ml/100 g body weight 24.0 hrs and 1.0 hour before the intra-plantar administration of the phlogegenic agent. Brewer's Yeast served as the inflammation-inducing substance and was injected at the rate of 0.1 ml of a 2% suspension made up in sterile saline into the right hind paw. (The left hind paw was injected with 0.1 ml saline only and served as the control foot.)
Male rats of Sprague-Dawley strain and with a weight of 250-350 g were injected intraperitoneally with 0.1-0.5 ml/100 g body weight of an aqueous solution or suspension. Oral administration was carried out as described under (a). Examination of the acute toxicity was carried out after 7 days.

[4] = Oral toxicity studies in primates (acute and prolonged daily dosing); format: in vivo
Description: as §1

[5] = tested on: rat paw-oedema / inflammation (Brewer's Yeast); assay: Anti-inflammatory effect, Brewer's Yeast rat paw oedema, intraperitoneal administration; format: in vivo, male Sprague-Dawley rats
Description: (§3) Ten animals were killed 5 hours after the challenge in order to determine the effect of the test substance on the accute inflammatory process. The remaining members of the group were sacrificed after 24 hours and used to assess the effect of the test compound on the secondary, residual inflammatory action of yeast. The average amount of oedema and swelling produced in the right foot by yeast was obtained by subtracting the weight of the foot from the weight obtained of the control (saline) side.
Groups of 20 male Sprague-Dawley rats, weighing 250 (±10 g) were acclimatized to the test environment. The test compound was made up in physiological saline at concentrations allowing the selected dose to be administered intraperitoneally at the rate of 0.1 ml/100 g body weight.
The test agent was administered 1.0 hour before the challenge with Brewer's Yeast. Otherwise the test procedure described under (a) was followed.

[6] = in vivo, ip
[7] = tested on: rat paw-oedema / inflammation (Brewer's Yeast); assay: Anti-inflammatory effect, Brewer's Yeast rat paw oedema, oral administration; format: in vivo, male Sprague-Dawley rats
Description: Twenty male Sprague-Dawley rats, (original supplier: Blue Spruce; Altamont U.S.A.) weighing 240-260 g, were acclimatized for at least 10 days to the test environment.
as §2
as §3, with “side. The results obtained from the treated groups were compared to the relevant control groups which received a similar volume of the aqueous Tylose®-solution only and the difference was expressed as a percentage increase or decrease over the control value.” for “side.”

CC[C@H](CC[C@@H](C)[C@H]1CC[C@H]2[C@@H]3CC=C4C[C@@H](O[C@@H]5O[C@H](CO)[C@@H](O[C@H]6O[C@H](CO)[C@@H](O)[C@H](O)[C@H]6O)[C@H](O)[C@H]5O)CC[C@]4(C)[C@H]3CC[C@]12C)C(C)C [S.M., sitosteryl β-D-maltoside, reference compound]
solubility [1]: 0.38 mg/mL (≈ 514 µM)

sitosteryl β-D-glucoside dihemisuccinate [S.G. dihemisuccinate]
Tolerance of prolonged daily doses ([2]; rat, in vivo): well tolerated | Acute toxicity studies, toxic effects ([2]; rats, oral, even in excess of 1000-2000 mg/kg): no toxic effects | Solubility (state or result in words) [1]: colloidal | Solubility in g per l water at 25° C, white gel / thick syrup [1]: 5×10^2 g per l | solubility [1]: 1,25×10^3 g/l | Acute toxicity after a single dose (% at dose) ([3]; 100 mg/kg): 25% | Tolerance of prolonged daily doses ([4]; in vivo): well tolerated | Acute toxicity studies, toxic effects ([4]; primates, oral, even in excess of 1000-2000 mg/kg): no toxic effects

CC[C@H](CC[C@@H](C)[C@H]1CC[C@H]2[C@@H]3CC=C4C[C@@H](O[C@@H]5O[C@H](CO)[C@@H](O)[C@H](O)[C@H]5O)CC[C@]4(C)[C@H]3CC[C@]12C)C(C)C [S.G., sitosteryl β-D-glucoside, reference compound]
solubility [1]: 0.009 mg/mL (≈ 15.6 µM)

CCC(CCC(C)C1CCC2C3CC=C4CC(OC5OC(COC(=O)CCC(=O)O)C(OC(=O)CCC(=O)O)C(OC(=O)CCC(=O)O)C5OC(=O)CCC(=O)O)CCC4(C)C3CCC12C)C(C)C (stereo not drawn) [S.G. tetrahemisuccinate]
Acute toxicity after a single dose (% at dose) ([3]; 100 mg/kg): 20% | Acute toxicity after a single dose (% at dose) ([3]; 200 mg/kg): 100% | Reduction of the inflammatory response in the rat-paw oedema trials in % ([5]; (50) mg/kg body weight, TABLE 2, time not given): -46.3%

disodium salt of sitosteryl β-D-glucoside dihemisuccinate [S.G. dihemisuccinate Na2 salt]
Adverse effects and tissue toxicity [6]: fewer adverse effects coupled with a lower tissue toxicity | Solubility in g per l water at 25° C, white gel / thick syrup [1]: 5×10^2 g per l | solubility [1]: 2000 mg/mL | Average percentage reduction of rat paw-oedema / inflammation ([7]; 500 mg/kg given 24,0 and 1,0 hour before challenge, after 5 hours): 8,5% | Average percentage reduction of rat paw-oedema / inflammation ([7]; 500 mg/kg given 24,0 and 1,0 hour before challenge, after 24 hours): 10,7% | Average percentage reduction of rat paw-oedema / inflammation ([7]; 1000 mg/kg given 24,0 and 1,0 hour before challenge, after 5 hours): 14,5% | Average percentage reduction of rat paw-oedema / inflammation ([7]; 1000 mg/kg given 24,0 and 1,0 hour before challenge, after 24 hours): 18,5% | Average percentage reduction of rat paw-oedema / inflammation ([5]; single dose 25 mg/kg 1 hour before challenge, after 5 hours): 27% | Average percentage reduction of rat paw-oedema / inflammation ([5]; single dose 25 mg/kg 1 hour before challenge, after 24 hours): 14% | Average percentage reduction of rat paw-oedema / inflammation ([5]; single dose 50 mg/kg 1 hour before challenge, after 5 hours): 47% | Average percentage reduction of rat paw-oedema / inflammation ([5]; single dose 50 mg/kg 1 hour before challenge, after 24 hours): 35%
